From patent publication US5646185A, “Tumor treatment method” (priority 1993, dated 1997)
pEC50: −log10 of the molar value.

Tests used:
PKC-epsilon = assay: Western blot of PKC epsilon levels in hypoxic tumor cells; format: cell-based, human; conditions: for effect on PKC epsilon induction/activation by hypoxia and TPA: alone or in combination, FIG. 9
Method: Western blotting methods, as detailed in Example 2, were used to validate that the treatment method of the invention increases levels of PKC. […] Little accumulation is seen before 9 hours of hypoxic exposure.
Cells were lysed in a 50 mM phosphate buffer, sonicated with 4.5 second pulses of 75 W with cooling on ice between pulses, and followed by 3 rounds of freezing/thawing. Protein concentrations of each sample may be estimated using the bicinchoninic acid method. 200 μg of protein were loaded per lane. After running for 2 hours at 40 mA in a 7.5% polyacrylamide gel, the gel is transferred onto Hybond ECL, (Amersham, Arlington Heights, Ill.) for 2 hours with the use of a Bio-Rad semi-dry transfer system. After the transfer, the gel may be stained with 0.15% Coomassie blue to ensure uniform transfer. […] Preferably, the membrane is probed using the method described in Kim, et al., which is incorporated herein by reference, and autoradiographed utilizing enhanced chemiluminescence (ECL) according to the manufacturer's protocol (Amersham, Arlington Heights, Ill.).

[1] = test system: A549 human adenocarcinoma cells; assay: Survival (colony forming) assay of tumor cells under aerobic or hypoxic conditions with drug treatment; conditions: for aerobic cytotoxicity of the drug by itself: TPA 1 uM, PDA 1 uM, OAG 200 uM, thapsigargin 2 uM, compound 48/80 50 mg/ml, pentoxyfylline 1 mM; for effect on cell survival in normally oxygenated (aerated) cells: aerated A549 cells; for reduction of cell survival in hypoxic cells relative to the cell survival fraction with hypoxia alone: 20 hours of hypoxia (0.02% O2)
Method: A549 human adenocarcinoma cells were maintained in culture with alpha MEM containing 10% fetal calf serum. Cells were plated two days before hypoxia treatment in 60 mm glass (Corning) tissue culture dishes with notched sides at a density of 1×10^6 cells/dish. Hypoxia treatment of cells may be performed in any method known and available to those skilled in the art.
On the day of the hypoxia treatment, cells were re-fed with fresh media and incubated 4-6 hours before being exposed to hypoxia. The petri dishes were preferably then placed in specially designed aluminum hypoxia chambers that are prewarmed overnight at 37° C. The chambers were sealed and subjected to successive rounds of evacuation followed by flushing with 95% N2 /5% CO2 while slowly being agitated on a reciprocating shaker. The chambers were then placed in a 37° C. incubator and kept on a reciprocating shaker for the duration of the hypoxic treatment.
Oxygen concentration may be monitored with the use of a Clark-type electrode, such as commercially available from Controls Katharobic, Edmonton, Canada.
After hypoxic treatment, the seals to the chambers were broken, and the cells were washed with phosphate buffered saline, trypsinized, and then plated into tissue culture dishes to assay for colony forming ability.
All drugs were made from fresh stocks on the day of the treatment. In the combined drug and hypoxia treatments, the cells were pretreated for one hour with the drug before being exposed to hypoxia and then plated into tissue culture plates. Cells were then treated in accordance with several different methods: 1) exposure of the cells to thapsigargin for one hour prior to and continuous exposure for the duration of the hypoxia, and then plated for survival; 2) one hour exposure to the PKC activator drug in standard air followed by continuous exposure for the duration of hypoxia, and then plated for survival; 3) continuous exposure during hypoxia to TPA followed by immediate plating for survival; 4) 19 hour hypoxia treatment followed by one hour exposure to TPA in air or hypoxia using a Bactron II anaerobic chamber (Sheldon Labs, Cornelius, Oreg.), and then plating for survival; 5) continuous exposure during 19 hours of hypoxia with phospholipase inhibitors (compound 48/80 and pentoxyfylline), exposure to TPA for 1 hour in air, and then plating for survival.
TPA, PDA, staurosporine, compound 48/80, and pentoxyfylline are commercially available from Sigma Chemicals, St. Louis, Mo. Thapsigargin, herbimycin A, and genistein are commercially available from Gibco/BRL, Gaithersberg, Md.
After various experimental treatments, cells were plated into Nunc tissue culture plates at the appropriate concentrations in triplicate. The plates are placed in a 37° C. incubator and stained 10 days after the experiment with 1% crystal violet in 10% methanol. Viable colonies are defined as colonies with 50 or more cells.

protein kinase C (PKC) = assay: Protein kinase C (PKC) activation assay; format: biochemical; conditions: approximate
Method: The EC50 is the concentration of compound that produces half-maximal stimulation of protein kinase C activity in a given assay.
Protein kinase C activation is measured in an assay that measures PKC phosphorylation activity using as substrate for PKC myelin basic protein. […] The reaction was initiated by an appropriate amount of crude cytosol extract. The phosphorylated product from 10 μl of reaction mixture was quantified using phospho-cellulose paper and washing method of Cook, et al. Background ^32 P incorporation in the absence of calcium and phosphatidyl serine/diolein and in the presence of 1 mM EGTA was subtracted from total incorporation in the complete PKC assay reaction mixture to determine the extent of PKC-dependent phosphorylation.
Suitable for use in this assay as a PKC source is either a crude extract, prepared as below, or, more preferably, purified PKC. Purified PKC is obtained from commercial sources.

[2] = test system: A549 human adenocarcinoma cells; assay: Pulsed-field gel electrophoresis of DNA degradation in hypoxia-treated cells; format: cell-based; conditions: added to hypoxia treated cells
Source text: The mechanism of cell death by hypoxia appears to be necrosis rather than apoptosis. Using pulsed-field gel electrophoresis, a steady increase in DNA degradation as a function of time under hypoxia may be found. The methods followed those given in Example 2. The pattern of DNA degradation (not shown) is not one that is characteristic of apoptosis. The DNA was not fragmented into distinct nucleosome ladders, which is one of the hallmark characteristics of apoptosis; rather, it separated as a smear which is indicative of death by necrosis.
Pulsed-field gel electrophoresis may be performed in any manner known and available to those skilled in the art. One preferred method is described in Giaccia, 1992b, which is incorporated herein by reference. Briefly, fresh media was added to all of the treatment groups on the day of the treatment. After treatment, cells were washed with phosphate buffered saline (PBS), trypsinized, and resuspended in 1% agarose/PBS. The cells embedded in agarose were allowed to solidify in glass tubes and then cut into 5 mm plugs. The plugs were lysed in 0.5M EDTA, 1% sarkosyl, and 1 mg/ml proteinase K (Boehringer Mannheim, Indianapolis), and incubated at 50° C. for 16 hours in this lysis buffer.
After dialyzing the plugs against 25 volumes of 10 mM Tris and 1 mM EDTA for 4 hours, the plugs were then treated with 20 mg/ml RNase A for 3 hours at 37° C. […]

## COC1C=CC=C(C)C(=O)NC2=CC(=O)C=C(C2=O)C(OC)C(C)CC(OC)C(OC)C(C)C=C(C)C1OC(N)=O (stereo not shown) [herbimycin A]
PKC-epsilon
  effect on PKC epsilon induction/activation by hypoxia and TPA: has no effect on PKC induction

## CCCCCCCC/C=C\CCCCCCCC(=O)OCC(CO)OC(C)=O (stereo not shown) [OAG, 2-acetyl-1-oleoylglycerol]
[1]
  aerobic cytotoxicity of the drug by itself: little or no aerobic cytotoxicity
[1]; FIG. 3
  effect on cell survival in normally oxygenated (aerated) cells: none of the PKC activators had an appreciable effect on cell survival

## C/C=C(/C)C(=O)O[C@H]1C(C)=C2[C@H]([C@@H]1OC(=O)CCCCCCC)[C@@](C)(OC(C)=O)C[C@H](OC(=O)CCC)[C@@]1(O)[C@H]2OC(=O)[C@@]1(C)O [thapsigargin]
[1]; 2 μM, FIG. 3
  selective killing of hypoxic cells: selectively killed hypoxic cells
[1]; FIG. 3
  reduction of cell survival in hypoxic cells relative to the cell survival fraction with hypoxia alone: about 1,000 fold
  effect on cell survival in normally oxygenated (aerated) cells: none of the PKC activators had an appreciable effect on cell survival
[1]
  aerobic cytotoxicity of the drug by itself: little or no aerobic cytotoxicity

## CCCCCCCCCCCCCC(=O)O[C@@H]1[C@@H](C)[C@@]2(O)[C@@H](C=C(CO)C[C@]3(O)C(=O)C(C)=C[C@@H]23)[C@@H]2C(C)(C)[C@]12OC(C)=O [TPA, 12-O-tetradecanoyl-phorbol-13-acetate]
[1]; 1 μM, FIG. 3
  selective killing of hypoxic versus aerobic cells: selectively killed hypoxic, but not aerobic cells
[1]; FIG. 3
  reduction of cell survival in hypoxic cells relative to the cell survival fraction with hypoxia alone: about 1,000 fold
  effect on cell survival in normally oxygenated (aerated) cells: none of the PKC activators had an appreciable effect on cell survival
[1]
  aerobic cytotoxicity of the drug by itself: little or no aerobic cytotoxicity
Protein kinase C (PKC)
  pEC50: ~6.00
PKC-epsilon; one hour exposure following 19 hours of hypoxia, FIG. 7B, 60 min
  increase in PKC levels over that of hypoxia alone: 5 fold
[2]
  DNA fragmentation over that found with hypoxia treatment alone: does not increase DNA fragmentation

## CC(=O)CCCCn1c(=O)c2c(ncn2C)n(C)c1=O [pentoxyfylline]
[1]; inhibitor during 19 hours of hypoxia, then TPA 1 hour, FIG. 8
  protection against TPA mediated hypoxic cell killing (increase in survival): 100 fold
PKC-epsilon
  effect on PKC epsilon induction/activation by hypoxia and TPA: do not inhibit PKC activation

## CCCCCCCCCC(=O)O[C@@H]1[C@@H](C)[C@@]2(O)[C@@H](C=C(CO)C[C@@]3(O)C(=O)C(C)=C[C@@H]23)[C@@H]2C(C)(C)[C@]12OC(=O)CCCCCCCCC [PDA, 4α-phorbol-12-13-didecanoate]
[1]
  aerobic cytotoxicity of the drug by itself: little or no aerobic cytotoxicity
[1]; aerobic and hypoxic A549 cells, FIG. 3
  effect on cell survival (control phorbol ester): indistinguishable from no drug treatment
PKC-epsilon; data not shown
  effect on steady state levels of PKC: has no effect
